Assay results reported in paper PMC9071858, “Comparative Pharmacokinetics of Seven Major Compounds in Normal and Atherosclerosis Mice after Oral Administration of Simiao Yong'an Decoction” (Evidence-based Complementary and Alternative Medicine : eCAM, 2022).

Assays:
[1] = Pharmacokinetic study in normal control (NC) mice after oral administration of SMYAD; format: in vivo, mouse; conditions: for AUC(0-t) / AUC(0-inf) / Cmax / half-life / Tmax: male, C57BL/6J
Procedure: (§1) Male C57BL/6J mice and ApoE^−/− mice on a C57BL/6 background (7 weeks old, 18–22 g) were purchased from Beijing Vital River Laboratory Animal Technology Co., Ltd. (Beijing, China, Certificate No.: SCXK (Jing) 2016-0006). All the mice were kept in an SPF animal house (Dongzhimen Hospital Affiliated to Beijing University of Chinese Medicine, Certificate No.: SYXK (Jing) 2015-0001) with food and water freely available, 12 h light/dark, and environmental conditions of 22°C–24°C, 50% relative humidity. All protocols of animal experiments were performed in accordance with the National Guidelines for Laboratory Animal Welfare and were approved by the Animal Ethics Committee of Beijing University of Chinese Medicine (NO. BUCM-4-2015071701-3001). High-fat feeding (containing 15% fat and 0.25% cholesterol) was provided by Beijing HFK bioscience CO., LTD. (Beijing, China, Certificate No.: SCXK (Jing) 2014-0018).
(§2) After successful induction of AS model, SMYAD was administered to NC and AS mice by intragastric gavage at the crude drug dose of 35 g/kg/d for seven days. Blood samples were collected from each mouse in heparinized tubes via the postorbital venous plexus veins at 0, 0.25, 0.5, 1, 2, 4, 6, 8, 10, 12, 18, and 24 h after seven days of drug administration. Then blood samples were immediately centrifuged at 3500 rpm at 4°C for 10 min and the plasma was stored at −80°C until use.
(§3) Each plasma sample (100 μL) was mixed with a threefold volume of methanol and 25 μL IS in a 1.5 mL EP tube. Then the mixture was vortexed for 100 seconds and centrifuged at 12,000 rpm for 10 min at 4°C. The supernatant was transferred to another EP tube and evaporated to dryness under a nitrogen vacuum. The residue was reconstituted with 100 μL of 50% methanol and centrifuged at 15,000 rpm for 15 min. Then the supernatant was transferred to sample vials for the LC-MS analysis.
(§4) A Vanquish UHPLC™ system (Thermo Fisher Scientific Inc., USA) was used for the analysis. Samples were separated on an Atlantis T3 column (4.6 mm × 150 mm, 3 μm; Waters, USA). The column temperature was 40°C. The mobile phase, at 0.4 mL/min, consisted of water containing 0.1% formic acid (v/v, A) and methanol (B). The quantitative analysis gradient program was as follows: 0-1 min, 0 B; 1–6 min, 0–100% B; 6–12 min, 100% B; 12–12.1 min, 100%-0 B; 12.1–15 min, 0 B. The injection volume was 5 μL.
(§5) The mass spectrometer Q Exactive HF-X (Thermo Fisher Scientific Inc., USA) system was connected to the UHPLC system via heated electrospray ionization (HESI) and controlled by Xcalibur 4.2 software (Thermo Fisher) that was used for data collection and analysis. The mass spectrometer was operated in a negative ionization mode. The MS parameters were set as follows: probe heater temperature, 350°C; capillary temperature: 320°C; sheath gas (N2) flow rate: 30 arbs; auxiliary gas (N2) flow rate: 10 arbs; spray voltage: 3.2 kV (negative); S-Lens RF level: 55 V; scan mode: full MS (resolution 12000); scan range: m/z 150–1500. The most abundant ions in the spectra were selected for sensitive quantitation ([M-H]^−of chlorogenic acid, angoroside C, liquiritin, isoliquiritigenin, and IS, [M + COOH]^− of harpagide, swertiamarin, and sweroside).
The pharmacokinetic parameters, including maximum plasma concentration (Cmax), time corresponding to Cmax (Tmax), terminal elimination half-life (T1/2), area under plasma concentration-time curve (AUC0–t) and area under the plasma concentration-time curve from 0 to infinity time (AUC0–∞), apparent volume of distribution (Vz/F) and clearance (CLz/F), were calculated using the noncompartment model in DAS 2.0 software package (Shanghai, China). GraphPad prism 6.02 (GraphPad Software, USA) was used in the statistical analysis. All values are expressed as mean ± standard error. For the pharmacokinetic parameter values of the NC and AS groups, Student's t-test was employed for data comparisons. P values <0.05 were considered statistically significant.

[2] = Pharmacokinetic study in atherosclerosis (AS) model ApoE−/− mice after oral administration of SMYAD; format: in vivo, mouse
Procedure: as §1
The AS model was established by a high-fat diet and perivascular carotid collar placement (PCCP) surgery in the ApoE^−/− mice. After a 7-day adaptive feeding, the mice were given a high-fat diet for 2 weeks; before anesthesia, all ApoE^−/− mice were fasted for 12 hours. During the surgery, the right common carotid artery was exposed, and a silicone cannula (length: 2.5 mm, inner diameter: 0.3 mm) was fixed around the carotid artery (external diameter: about 0.5 mm). Penicillin was injected intraperitoneally for 3 days after surgery to prevent infection. High-fat diet continued for 8 weeks after surgery to establish AS model. Biochemical assays and hematoxylin and eosin (HE) staining were used to evaluate whether AS model was successfully established.
as §2, §3, §4
as §5, with “sweroside). […]” for “sweroside).”

[3] = NC mice, plasma, SMYAD intragastric 35 g/kg/d for seven days, mean ± SD, n = 5
[4] = mouse, po, 35 g/kg/day, NC mice, plasma, SMYAD intragastric 35 g/kg/d for seven days, mean ± SD, n = 5, read-out: AUC0–t
[5] = mouse, po, 35 g/kg/day, NC mice, plasma, SMYAD intragastric 35 g/kg/d for seven days, mean ± SD, n = 5, read-out: AUC0–∞
[6] = mouse, po, 35 g/kg/day, NC mice, plasma, SMYAD intragastric 35 g/kg/d for seven days, mean ± SD, n = 5, read-out: C max
[7] = mouse, po, 35 g/kg/day, NC mice, plasma, SMYAD intragastric 35 g/kg/d for seven days, mean ± SD, n = 5, read-out: t 1/2 (converted)
[8] = mouse, po, 35 g/kg/day, NC mice, plasma, SMYAD intragastric 35 g/kg/d for seven days, mean ± SD, n = 5, read-out: t max
[9] = AS mice, plasma, SMYAD intragastric 35 g/kg/d for seven days, mean ± SD, n = 5
[10] = male, ApoE−/− on a C57BL/6 background, mouse, po, 35 g/kg/day, AS mice, plasma, SMYAD intragastric 35 g/kg/d for seven days, mean ± SD, n = 5, read-out: AUC0–t
[11] = male, ApoE−/− on a C57BL/6 background, mouse, po, 35 g/kg/day, AS mice, plasma, SMYAD intragastric 35 g/kg/d for seven days, mean ± SD, n = 5, read-out: AUC0–∞
[12] = male, ApoE−/− on a C57BL/6 background, mouse, po, 35 g/kg/day, AS mice, plasma, SMYAD intragastric 35 g/kg/d for seven days, mean ± SD, n = 5, read-out: C max
[13] = male, ApoE−/− on a C57BL/6 background, mouse, po, 35 g/kg/day, AS mice, plasma, SMYAD intragastric 35 g/kg/d for seven days, mean ± SD, n = 5, read-out: t 1/2 (converted)
[14] = male, ApoE−/− on a C57BL/6 background, mouse, po, 35 g/kg/day, AS mice, plasma, SMYAD intragastric 35 g/kg/d for seven days, mean ± SD, n = 5, read-out: t max
[15] = mouse, in vivo, po, 35 g/kg/day
[16] = male, ApoE−/− on a C57BL/6 background, mouse, in vivo, po, 35 g/kg/day

CLz/F [1, 3]	Vz/F [1, 3]	AUC(0-t) [1, 4]	AUC(0-inf) [1, 5]	Cmax [1, 6]	half-life [1, 7]	Tmax [1, 8]	CLz/F [2, 9]	Vz/F [2, 9]	AUC(0-t) [2, 10]	AUC(0-inf) [2, 11]	Cmax [2, 12]	half-life [2, 13]	Tmax [2, 14]	SMILES	AUC(0-inf) [1, 15]	AUC(0-t) [1, 15]	Cmax [1, 15]	Tmax [1, 15]	half-life [1, 15]	CLz/F [1, 15]	other results
30.37 ± 7.58 L/h/mg	247.01 ± 150.71 L/mg	1110 ± 419 ng·h/mL	1260 ± 425 ng·h/mL	267 ± 72.4 ng/mL	271 ± 66 min	67.8 ± 52.8 min	13.49 ± 1.81^∗∗ L/h/mg	302.49 ± 211.89 L/mg	1560 ± 476 ng·h/mL	2640 ± 323 ng·h/mL	1130 ± 970 ng/mL	1300 ± 550 min	15 min	O=C(/C=C/c1ccc(O)c(O)c1)O[C@@H]1C[C@](O)(C(=O)O)C[C@@H](O)[C@H]1O [Chlorogenic acid, chlorogenic acid]	–	–	–	–	–	–	CLz/F ([2]; AS mice, plasma, SMYAD intragastric 35 g/kg/d for seven days, mean ± SD, n = 5, listed as chlorogenic acid): 13.49 ± 1.81 L/h/mg
33.51 ± 4.41 L/h/mg	198.37 ± 58.53 L/mg	1040 ± 144 ng·h/mL	1060 ± 144 ng·h/mL	175 ± 49 ng/mL	399 ± 78.6 min	114 ± 128 min	62.16 ± 23.35^∗ L/h/mg	658.87 ± 555.51 L/mg	502 ± 166 ng·h/mL	654 ± 251 ng·h/mL	135 ± 102 ng/mL	361 ± 139 min	57 ± 36 min	O=C(/C=C/c1ccc(O)cc1)c1ccc(O)cc1O [Isoliquiritigenin, isoliquiritigenin]	–	–	–	–	–	–	CLz/F ([2]; AS mice, plasma, SMYAD intragastric 35 g/kg/d for seven days, mean ± SD, n = 5, listed as isoliquiritigenin): 62.16 ± 23.35 L/h/mg
–	–	–	–	–	–	–	–	–	–	–	–	–	–	O=C1C[C@@H](c2ccc(O[C@@H]3O[C@H](CO)[C@@H](O)[C@H](O)[C@H]3O)cc2)Oc2cc(O)ccc21 [Liquiritin, liquiritin]	760 ± 334 ng·h/mL	607 ± 229 ng·h/mL	132 ± 57.1 ng/mL	45 ± 37.8 min	1020 ± 206 min	58.74 ± 30.94 L/h/mg	Vz/F [1, 15]: 565.81 ± 116.60 L/mg; CLz/F ([2]; male, ApoE−/− on a C57BL/6 background, mouse, in vivo): 67.62 ± 33.62 L/h/mg; AUC(0-inf) [2, 16]: 482 ± 137 ng·h/mL; AUC(0-t) [2, 16]: 408 ± 115 ng·h/mL; Cmax [2, 16]: 67.6 ± 33.6 ng/mL; Tmax [2, 16]: 45 ± 41.4 min; half-life [2, 16]: 812 ± 214 min; Vz/F [2, 15]: 887.57 ± 397.82 L/mg
–	–	–	–	–	–	–	–	–	–	–	–	–	–	C=C[C@H]1[C@H](O[C@@H]2O[C@H](CO)[C@@H](O)[C@H](O)[C@H]2O)OC=C2C(=O)OCC[C@H]21 [Sweroside, sweroside]	7080 ± 390 ng·h/mL	6980 ± 382 ng·h/mL	1790 ± 369 ng/mL	24 ± 18 min	229 ± 33.6 min	4.96 ± 0.28 L/h/mg	Vz/F [1, 15]: 16.99 ± 3.78 L/mg; AUC(0-inf) [2, 16]: 8930 ± 2120 ng·h/mL; AUC(0-t) [2, 16]: 7500 ± 1800 ng·h/mL; Cmax [2, 16]: 1590 ± 497 ng/mL; Tmax [2, 16]: 54 ± 38.4 min; half-life [2, 16]: 394 ± 165 min; CLz/F [2, 15]: 4.29 ± 1.55 L/h/mg; Vz/F [2, 15]: 29.99 ± 14.26 L/mg
